{"source": "PubChem BioAssay AID504401", "about": "(The Scripps Research Institute Molecular Screening Center, 2011)", "assay_in_all_cases": "CYP450 and receptor off-target profile – biochemical, Ricerca HitProfilingScreen, selectivity assay for GPR7 antagonist project, late-stage follow-up (AID 504401)", "key": {"Adrenergic alpha1B": {"system": "Adrenergic alpha1B", "settings": "Ricerca radioligand binding and CYP450 panel, at 10 µM, hits give high values"}, "[1]": {"molecular_target": "Cytochrome P450 2C9 (Homo sapiens) (UniProt P11712)", "settings": "Ricerca radioligand binding and CYP450 panel; CYP450 2C9; at 10 µM; hits give high values"}, "[2]": {"molecular_target": "Cytochrome P450 3A4 (Homo sapiens) (UniProt P08684)", "sequence (P08684 whole entry, looked up)": "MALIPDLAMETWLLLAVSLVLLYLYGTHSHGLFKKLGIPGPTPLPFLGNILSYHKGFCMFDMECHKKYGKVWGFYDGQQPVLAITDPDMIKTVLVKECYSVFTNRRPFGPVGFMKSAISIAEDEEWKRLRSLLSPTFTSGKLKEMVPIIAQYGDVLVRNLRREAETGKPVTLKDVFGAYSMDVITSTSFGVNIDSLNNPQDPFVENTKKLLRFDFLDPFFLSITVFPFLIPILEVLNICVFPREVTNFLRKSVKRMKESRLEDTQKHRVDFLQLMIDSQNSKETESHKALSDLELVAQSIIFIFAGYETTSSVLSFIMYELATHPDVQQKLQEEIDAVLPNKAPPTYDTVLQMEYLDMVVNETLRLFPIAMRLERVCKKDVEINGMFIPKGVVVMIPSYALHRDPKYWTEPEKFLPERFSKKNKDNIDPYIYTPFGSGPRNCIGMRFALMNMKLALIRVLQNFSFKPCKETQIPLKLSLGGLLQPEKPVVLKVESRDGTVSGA", "settings": "Ricerca radioligand binding and CYP450 panel; CYP450 3A4; at 10 µM; hits give high values"}, "Adenosine A1": {"system": "Adenosine A1", "settings": "Ricerca radioligand binding and CYP450 panel, at 10 µM, hits give high values"}, "Glutamate NMDA": {"system": "Glutamate NMDA", "settings": "Ricerca radioligand binding and CYP450 panel, Phencyclidine site, at 10 µM, hits give high values"}, "[3]": {"molecular_target": "Muscarinic acetylcholine receptor M3 (Homo sapiens) (UniProt P20309)", "settings": "Ricerca radioligand binding and CYP450 panel, at 10 µM, hits give high values"}, "Adenosine A2A": {"system": "Adenosine A2A", "settings": "Ricerca radioligand binding and CYP450 panel, at 10 µM, hits give high values"}, "Sodium Channel": {"system": "Sodium Channel", "settings": "Ricerca radioligand binding and CYP450 panel, site 2, at 10 µM, hits give high values"}, "Prostanoid EP4": {"system": "Prostanoid EP4", "settings": "Ricerca radioligand binding and CYP450 panel, at 10 µM, hits give high values"}, "Calcium Channel L-Type": {"system": "Calcium Channel L-Type", "settings": "Ricerca radioligand binding and CYP450 panel, Dihydropyridine site, at 10 µM, hits give high values"}, "[4]": {"molecular_target": "Voltage-gated inwardly rectifying potassium channel KCNH2 (Homo sapiens) (UniProt Q12809)", "sequence (Q12809 whole entry, looked up)": "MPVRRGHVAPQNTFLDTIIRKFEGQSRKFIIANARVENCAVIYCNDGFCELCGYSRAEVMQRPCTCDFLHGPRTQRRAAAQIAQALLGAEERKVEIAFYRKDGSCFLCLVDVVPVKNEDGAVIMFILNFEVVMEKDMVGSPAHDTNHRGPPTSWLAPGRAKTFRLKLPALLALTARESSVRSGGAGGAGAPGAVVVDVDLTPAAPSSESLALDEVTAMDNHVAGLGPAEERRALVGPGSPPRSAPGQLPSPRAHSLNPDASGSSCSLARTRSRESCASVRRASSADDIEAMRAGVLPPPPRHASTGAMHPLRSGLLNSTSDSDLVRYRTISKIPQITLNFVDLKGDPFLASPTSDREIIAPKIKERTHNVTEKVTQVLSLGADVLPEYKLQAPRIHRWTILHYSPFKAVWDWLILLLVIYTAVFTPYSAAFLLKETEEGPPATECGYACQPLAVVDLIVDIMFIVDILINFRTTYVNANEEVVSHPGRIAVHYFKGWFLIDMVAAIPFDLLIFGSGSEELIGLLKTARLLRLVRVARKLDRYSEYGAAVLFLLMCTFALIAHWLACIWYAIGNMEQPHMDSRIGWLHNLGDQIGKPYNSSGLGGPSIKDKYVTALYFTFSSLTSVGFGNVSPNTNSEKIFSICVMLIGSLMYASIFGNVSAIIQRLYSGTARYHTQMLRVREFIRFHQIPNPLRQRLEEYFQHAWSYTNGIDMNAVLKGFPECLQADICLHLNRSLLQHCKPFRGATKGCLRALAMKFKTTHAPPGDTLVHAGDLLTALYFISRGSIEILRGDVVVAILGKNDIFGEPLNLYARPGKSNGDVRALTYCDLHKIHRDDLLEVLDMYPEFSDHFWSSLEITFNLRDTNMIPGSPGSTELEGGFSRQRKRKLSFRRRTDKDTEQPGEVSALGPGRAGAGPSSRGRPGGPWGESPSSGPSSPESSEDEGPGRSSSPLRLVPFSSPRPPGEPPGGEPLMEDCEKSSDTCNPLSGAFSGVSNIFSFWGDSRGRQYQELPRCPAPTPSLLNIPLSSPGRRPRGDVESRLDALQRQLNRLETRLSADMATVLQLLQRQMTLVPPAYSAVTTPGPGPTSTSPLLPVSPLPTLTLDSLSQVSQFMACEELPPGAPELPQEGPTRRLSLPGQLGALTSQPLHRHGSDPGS", "settings": "Ricerca radioligand binding and CYP450 panel; Potassium Channel hERG; at 10 µM; hits give high values"}, "Adrenergic beta1": {"system": "Adrenergic beta1", "settings": "Ricerca radioligand binding and CYP450 panel, at 10 µM, hits give high values"}, "[5]": {"molecular_target": "Cytochrome P450 1A2 (Homo sapiens) (UniProt P05177)", "sequence (P05177 whole entry, looked up)": "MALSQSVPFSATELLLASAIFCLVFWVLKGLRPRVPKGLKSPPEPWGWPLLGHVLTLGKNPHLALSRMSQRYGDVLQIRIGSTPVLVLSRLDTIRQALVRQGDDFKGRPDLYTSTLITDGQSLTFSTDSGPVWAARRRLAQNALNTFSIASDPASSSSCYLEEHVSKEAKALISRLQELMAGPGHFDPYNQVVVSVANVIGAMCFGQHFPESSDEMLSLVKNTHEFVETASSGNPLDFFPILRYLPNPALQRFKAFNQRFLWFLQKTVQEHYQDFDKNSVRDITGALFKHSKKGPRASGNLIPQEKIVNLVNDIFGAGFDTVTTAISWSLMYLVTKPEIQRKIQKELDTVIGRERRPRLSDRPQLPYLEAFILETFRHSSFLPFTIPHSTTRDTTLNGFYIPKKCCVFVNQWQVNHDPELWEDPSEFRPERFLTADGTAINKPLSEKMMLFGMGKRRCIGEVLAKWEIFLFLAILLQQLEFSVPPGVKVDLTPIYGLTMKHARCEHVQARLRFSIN", "settings": "Ricerca radioligand binding and CYP450 panel; CYP450 1A2; at 10 µM; hits give high values"}, "[6]": {"system": "Alpha-2A adrenergic receptor (Homo sapiens) + Histamine H1 receptor (Homo sapiens) + Mu-type opioid receptor (Homo sapiens)", "settings": "Ricerca radioligand binding and CYP450 panel; at 10 µM; hits give high values"}, "[7]": {"molecular_target": "Beta-2 adrenergic receptor (Homo sapiens) (UniProt P07550)", "sequence (P07550 whole entry, looked up)": "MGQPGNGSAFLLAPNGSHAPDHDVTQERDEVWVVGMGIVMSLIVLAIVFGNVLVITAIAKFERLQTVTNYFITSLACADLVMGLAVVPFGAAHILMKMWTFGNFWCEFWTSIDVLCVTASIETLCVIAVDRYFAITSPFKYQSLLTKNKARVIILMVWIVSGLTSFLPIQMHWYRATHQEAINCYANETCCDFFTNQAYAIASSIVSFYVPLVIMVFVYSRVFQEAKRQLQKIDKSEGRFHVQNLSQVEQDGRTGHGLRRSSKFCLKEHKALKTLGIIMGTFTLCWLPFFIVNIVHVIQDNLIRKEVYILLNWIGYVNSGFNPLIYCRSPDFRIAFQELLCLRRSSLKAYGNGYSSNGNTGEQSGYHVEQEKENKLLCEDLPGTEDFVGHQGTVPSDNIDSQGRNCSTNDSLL", "settings": "Ricerca radioligand binding and CYP450 panel; Adrenergic beta2; at 10 µM; hits give high values"}, "CYP450 2C19": {"system": "CYP450 2C19", "settings": "Ricerca radioligand binding and CYP450 panel, at 10 µM, hits give high values"}, "[8]": {"molecular_target": "D(1A) dopamine receptor (Homo sapiens) (UniProt P21728)", "sequence (P21728 whole entry, looked up)": "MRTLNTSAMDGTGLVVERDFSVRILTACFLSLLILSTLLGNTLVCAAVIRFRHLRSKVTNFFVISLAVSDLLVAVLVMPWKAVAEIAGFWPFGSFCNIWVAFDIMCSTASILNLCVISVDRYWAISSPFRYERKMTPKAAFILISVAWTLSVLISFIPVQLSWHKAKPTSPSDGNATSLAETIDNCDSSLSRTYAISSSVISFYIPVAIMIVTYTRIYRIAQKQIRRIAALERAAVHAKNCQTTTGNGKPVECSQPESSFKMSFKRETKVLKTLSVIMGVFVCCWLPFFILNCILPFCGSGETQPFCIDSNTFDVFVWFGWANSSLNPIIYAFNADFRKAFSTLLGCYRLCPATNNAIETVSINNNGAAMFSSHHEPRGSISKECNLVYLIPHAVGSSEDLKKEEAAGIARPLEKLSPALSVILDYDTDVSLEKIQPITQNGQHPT", "settings": "Ricerca radioligand binding and CYP450 panel; Dopamine D1; at 10 µM; hits give high values"}, "[9]": {"molecular_target": "Alpha-2A adrenergic receptor (Homo sapiens) (UniProt P08913)", "sequence (P08913 whole entry, looked up)": "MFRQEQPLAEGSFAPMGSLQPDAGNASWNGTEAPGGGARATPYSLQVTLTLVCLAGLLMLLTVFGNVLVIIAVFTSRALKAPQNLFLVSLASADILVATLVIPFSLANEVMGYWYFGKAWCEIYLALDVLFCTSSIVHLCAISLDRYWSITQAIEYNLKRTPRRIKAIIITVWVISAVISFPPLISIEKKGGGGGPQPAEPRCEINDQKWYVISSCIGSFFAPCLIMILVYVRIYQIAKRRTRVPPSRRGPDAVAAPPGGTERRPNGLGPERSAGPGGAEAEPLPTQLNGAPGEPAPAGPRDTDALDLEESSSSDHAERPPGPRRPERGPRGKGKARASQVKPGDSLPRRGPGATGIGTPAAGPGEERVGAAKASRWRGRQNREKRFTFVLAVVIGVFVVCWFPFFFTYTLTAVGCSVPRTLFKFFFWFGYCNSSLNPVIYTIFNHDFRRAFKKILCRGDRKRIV", "settings": "Ricerca radioligand binding and CYP450 panel; Adrenergic alpha2A; at 10 µM; hits give high values"}, "[10]": {"system": "Norepinephrine Transporter (NET)", "settings": "Ricerca radioligand binding and CYP450 panel, at 10 µM, hits give high values"}, "[11]": {"molecular_target": "Muscarinic acetylcholine receptor M2 (Homo sapiens) (UniProt P08172)", "sequence (P08172 whole entry, looked up)": "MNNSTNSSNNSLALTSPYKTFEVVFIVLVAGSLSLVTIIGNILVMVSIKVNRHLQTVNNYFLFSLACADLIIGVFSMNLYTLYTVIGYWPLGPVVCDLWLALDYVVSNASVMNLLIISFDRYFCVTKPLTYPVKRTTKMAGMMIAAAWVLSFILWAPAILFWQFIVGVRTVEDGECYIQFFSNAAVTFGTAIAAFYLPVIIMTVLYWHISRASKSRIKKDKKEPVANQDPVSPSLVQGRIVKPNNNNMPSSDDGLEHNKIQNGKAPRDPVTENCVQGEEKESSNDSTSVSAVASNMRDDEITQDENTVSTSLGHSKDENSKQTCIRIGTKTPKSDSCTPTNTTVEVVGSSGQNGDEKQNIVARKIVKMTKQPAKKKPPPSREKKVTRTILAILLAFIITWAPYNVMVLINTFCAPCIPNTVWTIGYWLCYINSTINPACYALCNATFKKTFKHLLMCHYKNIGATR", "settings": "Ricerca radioligand binding and CYP450 panel, at 10 µM, hits give high values"}, "[12]": {"molecular_target": "Cytochrome P450 2D6 (Homo sapiens) (UniProt P10635)", "sequence (P10635 whole entry, looked up)": "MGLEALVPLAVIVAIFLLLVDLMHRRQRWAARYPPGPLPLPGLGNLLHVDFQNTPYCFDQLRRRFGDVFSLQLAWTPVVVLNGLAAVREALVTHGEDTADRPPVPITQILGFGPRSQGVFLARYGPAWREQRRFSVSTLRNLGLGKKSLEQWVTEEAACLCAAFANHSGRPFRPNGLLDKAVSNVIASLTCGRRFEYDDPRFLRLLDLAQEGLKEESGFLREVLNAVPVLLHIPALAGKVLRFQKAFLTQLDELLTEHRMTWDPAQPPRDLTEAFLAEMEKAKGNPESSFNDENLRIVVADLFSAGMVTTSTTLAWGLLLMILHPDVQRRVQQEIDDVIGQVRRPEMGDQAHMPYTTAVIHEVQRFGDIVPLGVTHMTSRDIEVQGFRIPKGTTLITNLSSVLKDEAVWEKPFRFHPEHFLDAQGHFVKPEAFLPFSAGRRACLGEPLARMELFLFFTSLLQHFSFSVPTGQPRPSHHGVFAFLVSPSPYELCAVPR", "settings": "Ricerca radioligand binding and CYP450 panel; CYP450 2D6; at 10 µM; hits give high values"}, "Sigma 1": {"system": "Sigma 1", "settings": "Ricerca radioligand binding and CYP450 panel, at 10 µM, hits give high values"}, "Histamine H1": {"system": "Histamine H1", "settings": "Ricerca radioligand binding and CYP450 panel, at 10 µM, hits give high values"}, "GABAA": {"system": "GABAA", "settings": "Ricerca radioligand binding and CYP450 panel, central, at 10 µM, hits give high values"}, "Adrenergic alpha1A": {"system": "Adrenergic alpha1A", "settings": "Ricerca radioligand binding and CYP450 panel, at 10 µM, hits give high values"}, "Dopamine D2S": {"system": "Dopamine D2S", "settings": "Ricerca radioligand binding and CYP450 panel, at 10 µM, hits give high values"}, "Cannabinoid CB1": {"system": "Cannabinoid CB1", "settings": "Ricerca radioligand binding and CYP450 panel, at 10 µM, hits give high values"}, "[13]": {"molecular_target": "5-hydroxytryptamine receptor 2B (Homo sapiens) (UniProt P41595)", "sequence (P41595 whole entry, looked up)": "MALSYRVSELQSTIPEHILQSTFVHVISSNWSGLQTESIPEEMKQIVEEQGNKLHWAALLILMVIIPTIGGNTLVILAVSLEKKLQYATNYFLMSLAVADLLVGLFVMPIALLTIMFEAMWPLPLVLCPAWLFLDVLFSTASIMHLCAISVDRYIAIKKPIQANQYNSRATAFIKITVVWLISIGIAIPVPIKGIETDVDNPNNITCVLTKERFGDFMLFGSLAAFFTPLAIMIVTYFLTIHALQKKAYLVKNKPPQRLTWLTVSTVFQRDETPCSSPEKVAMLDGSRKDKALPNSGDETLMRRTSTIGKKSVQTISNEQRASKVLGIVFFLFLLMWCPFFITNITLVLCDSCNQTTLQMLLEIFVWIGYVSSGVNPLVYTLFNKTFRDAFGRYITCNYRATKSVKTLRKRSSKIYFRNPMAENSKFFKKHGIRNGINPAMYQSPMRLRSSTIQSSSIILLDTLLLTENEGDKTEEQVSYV", "settings": "Ricerca radioligand binding and CYP450 panel; Serotonin (5-Hydroxytryptamine) 5-HT2B; at 10 µM; hits give high values"}, "Opiate mu (OP3, MOP)": {"system": "Opiate mu (OP3, MOP)", "settings": "Ricerca radioligand binding and CYP450 panel, at 10 µM, hits give high values"}, "Nicotinic Acetylcholine": {"system": "Nicotinic Acetylcholine", "settings": "Ricerca radioligand binding and CYP450 panel, at 10 µM, hits give high values"}}, "note": "Active and inactive are the calls of the source. How the calls were made is not given here.", "data": [{"smiles": "COc1ccc(Oc2c(Cl)cnn(-c3cc(C)cc(C)c3)c2=O)cc1", "values": [{"measurement": "inhibition", "setting": "Adrenergic alpha1B", "value": "3% (inactive)"}, {"measurement": "inhibition", "setting": "[1]", "value": "5% (inactive)"}, {"measurement": "inhibition", "setting": "[2]", "value": 53, "unit": "%"}, {"measurement": "inhibition", "setting": "Adenosine A1", "value": "19% (inactive)"}, {"measurement": "inhibition", "setting": "Glutamate NMDA", "value": "-3% (inactive)"}, {"measurement": "inhibition", "setting": "[3]", "value": "0% (inactive)"}, {"measurement": "inhibition", "setting": "Adenosine A2A", "value": "14% (inactive)"}, {"measurement": "inhibition", "setting": "Sodium Channel", "value": "23% (inactive)"}, {"measurement": "inhibition", "setting": "Prostanoid EP4", "value": "2% (inactive)"}, {"measurement": "inhibition", "setting": "Calcium Channel L-Type", "value": "26% (inactive)"}, {"measurement": "inhibition", "setting": "[4]", "value": "13% (inactive)"}, {"measurement": "inhibition", "setting": "Adrenergic beta1", "value": "13% (inactive)"}, {"measurement": "inhibition", "setting": "[5]", "value": "11% (inactive)"}, {"measurement": "inhibition", "setting": "[6]", "value": "-3% (inactive)"}, {"measurement": "inhibition", "setting": "[7]", "value": "-2% (inactive)"}, {"measurement": "inhibition", "setting": "CYP450 2C19", "value": "-3% (inactive)"}, {"measurement": "inhibition", "setting": "[8]", "value": "5% (inactive)"}, {"measurement": "inhibition", "setting": "[9]", "value": "8% (inactive)"}, {"measurement": "inhibition", "setting": "[10]", "value": "47% (inactive)"}, {"measurement": "inhibition", "setting": "[11]", "value": "2% (inactive)"}, {"measurement": "inhibition", "setting": "[12]", "value": "16% (inactive)"}, {"measurement": "inhibition", "setting": "Sigma 1", "value": "-4% (inactive)"}, {"measurement": "inhibition", "setting": "Histamine H1", "value": "16% (inactive)"}, {"measurement": "inhibition", "setting": "GABAA; Flunitrazepam site", "value": "-1% (inactive)"}, {"measurement": "inhibition", "setting": "GABAA; Muscimol site", "value": "4% (inactive)"}, {"measurement": "inhibition", "setting": "Adrenergic alpha1A", "value": "2% (inactive)"}, {"measurement": "inhibition", "setting": "Dopamine D2S", "value": "13% (inactive)"}, {"measurement": "inhibition", "setting": "Cannabinoid CB1", "value": "25% (inactive)"}, {"measurement": "inhibition", "setting": "[13]", "value": "8% (inactive)"}, {"measurement": "inhibition", "setting": "Opiate mu (OP3, MOP)", "value": "-7% (inactive)"}, {"measurement": "inhibition", "setting": "Nicotinic Acetylcholine", "value": "-22% (inactive)"}]}]}
